Experimental data: ChEMBL document CHEMBL4665675 (J Med Chem, 2020)

tested on: P388; assay: Antiproliferative activity against mouse P388 cells incubated for 72 hrs by Coulter counter method; type: functional, cell-based; conditions: P388, 72 h

Point of comparison: CNc1ccc2c(cc1=O)[C@@H](NC(C)=O)CCc1cc(OC)c(OC)c(OC)c1-2, IC50 29 nM. Against it:
- COc1cc2c(c(OC)c1OC)-c1ccc(NCCCN(C)C)c(=O)cc1[C@@H](NC(C)=O)CC2 — higher, > 10000 nM
- CCCNc1ccc2c(cc1=O)[C@@H](NC(C)=O)CCc1cc(OC)c(OC)c(OC)c1-2 — within 1.5-fold, 36 nM

tested on: A549; assay: Cytotoxicity against human A549 cells; type: functional, cell-based; conditions: not given

Point of comparison: COc1cc2c(c(OC)c1OC)-c1ccc(NCCOC(=O)CCC(=O)OCCCCO[N+](=O)[O-])c(=O)cc1[C@@H](NC(C)=O)CC2, IC50 40 nM. Against it:
- COc1cc2c(c(OC)c1OC)-c1ccc(NCCOC(=O)CCC(=O)OCCCO[N+](=O)[O-])c(=O)cc1[C@@H](NC(C)=O)CC2 — the same, 40 nM
- COc1cc2c(c(OC)c1OC)-c1ccc(NCCOC(=O)CCC(=O)Oc3cccc(CO[N+](=O)[O-])c3)c(=O)cc1[C@@H](NC(C)=O)CC2 — 2.4-fold lower, 17 nM
- COc1cc2c(c(OC)c1OC)-c1ccc(NCCOC(=O)CCC(=O)OCCO[N+](=O)[O-])c(=O)cc1[C@@H](NC(C)=O)CC2 — the same, 40 nM
- COc1cc2c(c(OC)c1OC)-c1ccc(NCCOC(=O)CCC(=O)OCCCCCO[N+](=O)[O-])c(=O)cc1[C@@H](NC(C)=O)CC2 — the same, 40 nM
- COc1cc2c(c(OC)c1OC)-c1ccc(NCCOC(=O)CCC(=O)OCCCCCCO[N+](=O)[O-])c(=O)cc1[C@@H](NC(C)=O)CC2 — the same, 40 nM
- COc1cc2c(c(OC)c1OC)-c1ccc(NCCOC(=O)CCC(=O)Oc3ccc(CO[N+](=O)[O-])cc3)c(=O)cc1[C@@H](NC(C)=O)CC2 — 2.4-fold lower, 17 nM

tested on: Bel-7402; assay: Cytotoxicity against human BEL7402 cells; type: functional, cell-based; conditions: not given

Point of comparison: COc1cc2c(c(OC)c1OC)-c1ccc(NCCOC(=O)CCC(=O)Oc3cccc(CO[N+](=O)[O-])c3)c(=O)cc1[C@@H](NC(C)=O)CC2, IC50 17 nM. Against it:
- COc1cc2c(c(OC)c1OC)-c1ccc(NCCOC(=O)CCC(=O)OCCCO[N+](=O)[O-])c(=O)cc1[C@@H](NC(C)=O)CC2 — 2.4-fold higher, 40 nM
- COc1cc2c(c(OC)c1OC)-c1ccc(NCCOC(=O)CCC(=O)OCCCCO[N+](=O)[O-])c(=O)cc1[C@@H](NC(C)=O)CC2 — 2.4-fold higher, 40 nM
- COc1cc2c(c(OC)c1OC)-c1ccc(NCCOC(=O)CCC(=O)OCCO[N+](=O)[O-])c(=O)cc1[C@@H](NC(C)=O)CC2 — 2.4-fold higher, 40 nM
- COc1cc2c(c(OC)c1OC)-c1ccc(NCCOC(=O)CCC(=O)OCCCCCO[N+](=O)[O-])c(=O)cc1[C@@H](NC(C)=O)CC2 — 2.4-fold higher, 40 nM
- COc1cc2c(c(OC)c1OC)-c1ccc(NCCOC(=O)CCC(=O)OCCCCCCO[N+](=O)[O-])c(=O)cc1[C@@H](NC(C)=O)CC2 — 2.4-fold higher, 40 nM
- COc1cc2c(c(OC)c1OC)-c1ccc(NCCOC(=O)CCC(=O)Oc3ccc(CO[N+](=O)[O-])cc3)c(=O)cc1[C@@H](NC(C)=O)CC2 — the same, 17 nM

tested on: MCF7; assay: Cytotoxicity against human MCF7 cells; type: functional, cell-based; conditions: not given

Point of comparison: COc1cc2c(c(OC)c1OC)-c1ccc(NCCOC(=O)CCC(=O)Oc3cccc(CO[N+](=O)[O-])c3)c(=O)cc1[C@@H](NC(C)=O)CC2, IC50 17 nM. Against it:
- COc1cc2c(c(OC)c1OC)-c1ccc(NCCOC(=O)CCC(=O)OCCCO[N+](=O)[O-])c(=O)cc1[C@@H](NC(C)=O)CC2 — 2.4-fold higher, 40 nM
- COc1cc2c(c(OC)c1OC)-c1ccc(NCCOC(=O)CCC(=O)OCCCCO[N+](=O)[O-])c(=O)cc1[C@@H](NC(C)=O)CC2 — 2.4-fold higher, 40 nM
- COc1cc2c(c(OC)c1OC)-c1ccc(NCCOC(=O)CCC(=O)OCCO[N+](=O)[O-])c(=O)cc1[C@@H](NC(C)=O)CC2 — 2.4-fold higher, 40 nM
- COc1cc2c(c(OC)c1OC)-c1ccc(NCCOC(=O)CCC(=O)OCCCCCO[N+](=O)[O-])c(=O)cc1[C@@H](NC(C)=O)CC2 — 2.4-fold higher, 40 nM
- COc1cc2c(c(OC)c1OC)-c1ccc(NCCOC(=O)CCC(=O)OCCCCCCO[N+](=O)[O-])c(=O)cc1[C@@H](NC(C)=O)CC2 — 2.4-fold higher, 40 nM
- COc1cc2c(c(OC)c1OC)-c1ccc(NCCOC(=O)CCC(=O)Oc3ccc(CO[N+](=O)[O-])cc3)c(=O)cc1[C@@H](NC(C)=O)CC2 — the same, 17 nM

tested on: A2780; assay: Cytotoxicity against human A2780 cells; type: functional, cell-based; conditions: not given

Point of comparison: COc1cc2c(c(OC)c1OC)-c1ccc(NCCOC(=O)CCC(=O)OCCO[N+](=O)[O-])c(=O)cc1[C@@H](NC(C)=O)CC2, IC50 20 nM. Against it:
- COc1cc2c(c(OC)c1OC)-c1ccc(NCCOC(=O)CCC(=O)OCCCO[N+](=O)[O-])c(=O)cc1[C@@H](NC(C)=O)CC2 — the same, 20 nM
- COc1cc2c(c(OC)c1OC)-c1ccc(NCCOC(=O)CCC(=O)Oc3cccc(CO[N+](=O)[O-])c3)c(=O)cc1[C@@H](NC(C)=O)CC2 — the same, 20 nM
- COc1cc2c(c(OC)c1OC)-c1ccc(NCCOC(=O)CCC(=O)OCCCCO[N+](=O)[O-])c(=O)cc1[C@@H](NC(C)=O)CC2 — the same, 20 nM
- COc1cc2c(c(OC)c1OC)-c1ccc(NCCOC(=O)CCC(=O)OCCCCCO[N+](=O)[O-])c(=O)cc1[C@@H](NC(C)=O)CC2 — the same, 20 nM
- COc1cc2c(c(OC)c1OC)-c1ccc(NCCOC(=O)CCC(=O)OCCCCCCO[N+](=O)[O-])c(=O)cc1[C@@H](NC(C)=O)CC2 — the same, 20 nM
- COc1cc2c(c(OC)c1OC)-c1ccc(NCCOC(=O)CCC(=O)Oc3ccc(CO[N+](=O)[O-])cc3)c(=O)cc1[C@@H](NC(C)=O)CC2 — the same, 20 nM

tested on: HeLa; assay: Cytotoxicity against human HeLa cells after 24 to 72 hrs by Cell Titer Blue assay; type: cell-based; conditions: not given

Point of comparison: COc1cc2c(c(OC)c1OC)-c1ccc(=N)c(O)cc1[C@@H](NC(C)=O)CC2, IC50 7 nM. Against it:
- COc1cc2c(c(OC)c1OC)-c1ccc(NCCCC(=O)N[C@H](C(=O)OC3CCCC3)c3ccccc3)c(=O)cc1[C@@H](NC(C)=O)CC2 — 180-fold higher, 1240 nM

molecular target: T1, carboxylesterase 1 (CES1) (Homo sapiens, UniProt P23141); assay: Substrate activity at human carboxylesterase 1 expressed in baculovirus infected Sf9 insect cells assessed as enzyme-catalysed compound cleavage incubated for 2 hrs by HPLC analysis; type: ADME; conditions: read-out: Activity
T1 sequence (P23141 whole entry): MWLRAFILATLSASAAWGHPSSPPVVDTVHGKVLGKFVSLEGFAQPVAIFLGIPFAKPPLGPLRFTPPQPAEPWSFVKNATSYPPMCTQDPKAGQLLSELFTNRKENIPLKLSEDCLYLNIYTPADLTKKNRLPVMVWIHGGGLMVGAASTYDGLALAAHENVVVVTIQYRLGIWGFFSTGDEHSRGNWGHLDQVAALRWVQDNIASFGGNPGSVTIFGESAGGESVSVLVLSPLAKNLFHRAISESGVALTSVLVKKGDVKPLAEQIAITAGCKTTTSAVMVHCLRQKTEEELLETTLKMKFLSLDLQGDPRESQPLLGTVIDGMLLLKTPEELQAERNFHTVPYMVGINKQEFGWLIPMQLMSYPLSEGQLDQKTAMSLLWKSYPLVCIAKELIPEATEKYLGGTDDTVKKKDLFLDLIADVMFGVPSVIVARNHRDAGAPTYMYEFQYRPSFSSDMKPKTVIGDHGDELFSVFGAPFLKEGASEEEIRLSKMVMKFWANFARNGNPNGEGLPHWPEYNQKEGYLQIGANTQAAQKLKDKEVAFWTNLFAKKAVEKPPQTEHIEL

COc1cc2c(c(OC)c1OC)-c1ccc(NCCCC(=O)N[C@H](C(=O)OC3CCCC3)c3ccccc3)c(=O)cc1[C@@H](NC(C)=O)CC2 was tested, and the metabolised at 2 h was 0%.
